Data taken from patent publication US8034812B2, “Imidazopyridazine derivative having kinase inhibitory activity and pharmaceutical agent thereof” (Takeda Pharmaceutical Company Limited, priority 2006, dated 2011).

What was measured:
[1] = target: T1, PDGFRα intracellular domain protein (Homo sapiens, UniProt P16234); assay: Determination of platelet-derived growth factor receptor α (PDGFRα) kinase inhibitory activity (AlphaScreen); format: biochemical
T1 construct: 125 ng/ml of PDGFRα intracellular domain protein (UPSTATE); purchased UPSTATE
T1 sequence (P16234 550-1089 limits assumed): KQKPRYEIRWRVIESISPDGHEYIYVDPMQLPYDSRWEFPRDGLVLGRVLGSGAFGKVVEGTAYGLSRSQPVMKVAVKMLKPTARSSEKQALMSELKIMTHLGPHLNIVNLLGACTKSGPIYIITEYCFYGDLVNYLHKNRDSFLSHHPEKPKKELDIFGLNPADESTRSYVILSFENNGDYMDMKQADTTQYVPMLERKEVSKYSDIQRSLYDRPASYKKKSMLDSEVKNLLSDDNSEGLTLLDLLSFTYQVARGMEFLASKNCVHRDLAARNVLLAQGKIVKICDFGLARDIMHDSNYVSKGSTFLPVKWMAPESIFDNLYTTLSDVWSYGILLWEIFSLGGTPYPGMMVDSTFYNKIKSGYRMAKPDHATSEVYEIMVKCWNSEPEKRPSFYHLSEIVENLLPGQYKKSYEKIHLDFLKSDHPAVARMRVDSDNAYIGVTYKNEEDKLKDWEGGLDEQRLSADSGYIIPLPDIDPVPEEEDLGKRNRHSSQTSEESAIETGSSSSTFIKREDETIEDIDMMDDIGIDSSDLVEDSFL
Procedure: (§1) A test compound dissolved in dimethyl sulfoxide (DMSO) was diluted with a buffer (50 mM Tris-HCl (pH 7.5), 5 mM MgCl2, 5 mM MnCl2, 2 mM dithiothreitol, 0.01% Tween-20). To this compound solution (5 μL) was added a buffer (10 μL) containing 125 ng/ml of PDGFRα intracellular domain protein (UPSTATE) and 250 ng/mL of biotin labeled polypeptide biotinyl-poly-Glu:Tyr (4:1) (CIS bio International). At 5 min after mixing kinase enzyme and the compound and biotin labeled polypeptide, to the obtained mixture was added a buffer (10 μL) containing ATP (25 μM), the mixture was allowed to react at 25° C. for 30 min and the reaction was quenched with 25 μL of a stop solution (100 mM EDTA disodium salt, 62.5 mM HEPES buffer (pH 7.4), 250 mM NaCl, 0.1% bovine serum albumin, 10 μg/mL AlphaScreen assay streptavidin donor beads (Streptavidin Donor beads: PerkinElmer), 10 μg/mL AlphaScreen assay anti-phosphotyrosine recognition antibody PT-66 binding acceptor beads (Anti-phosphotyrosine (P-Tyr-66) Acceptor beads: PerkinElmer)). The reaction solution was allowed to stand at 25° C. for 16 hrs, and the wells were counted using a plate reader Fusion™ (PerkinElmer). The kinase inhibitory rate (%) of the test compound was calculated by the following formula: Inhibitory rate(%)=(1−(count of test compound−blank)÷(control−blank))×100
(§2) The count of the solution reacted without addition of the compound was used as a “control”, and the count of the solution without the compound and ATP was used as a “blank”.

[2] = target: T2, PDGFRβ intracellular domain protein (Homo sapiens, UniProt P09619); assay: Determination of platelet-derived growth factor receptor β (PDGFRβ) kinase inhibitory activity (AlphaScreen); format: biochemical
T2 construct: 125 ng/ml of PDGFRβ intracellular domain protein (UPSTATE); purchased UPSTATE
T2 sequence (P09619 554-1106 limits assumed): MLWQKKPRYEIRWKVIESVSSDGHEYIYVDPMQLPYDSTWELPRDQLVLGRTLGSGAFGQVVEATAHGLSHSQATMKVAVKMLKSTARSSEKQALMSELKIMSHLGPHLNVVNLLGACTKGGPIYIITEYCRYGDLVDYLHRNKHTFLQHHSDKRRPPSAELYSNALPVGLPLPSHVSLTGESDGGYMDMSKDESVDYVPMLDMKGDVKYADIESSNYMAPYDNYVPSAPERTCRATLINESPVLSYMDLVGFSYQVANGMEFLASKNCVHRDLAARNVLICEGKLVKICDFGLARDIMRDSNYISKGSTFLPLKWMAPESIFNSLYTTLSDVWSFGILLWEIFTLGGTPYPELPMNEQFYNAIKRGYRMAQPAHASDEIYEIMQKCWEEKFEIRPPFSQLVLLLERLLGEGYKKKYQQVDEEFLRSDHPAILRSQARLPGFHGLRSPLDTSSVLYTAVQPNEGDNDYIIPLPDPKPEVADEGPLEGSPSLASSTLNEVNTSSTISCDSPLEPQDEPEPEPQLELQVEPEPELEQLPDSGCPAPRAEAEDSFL
Procedure: as §1, with “of PDGFRβ” for “of PDGFRα”, “Donor Beads:” for “Donor beads:”, “test compound[…])÷(control−blank))×100” for “test compound−blank)÷(control−blank))×100”
as §2

[3] = target: T3, VEGFR2 intracellular domain protein (Homo sapiens, UniProt P35968); assay: Determination of vascular endothelial growth factor receptor 2 (VEGFR2) kinase inhibitory activity (AlphaScreen); format: biochemical; conditions: read-out: VEGFR2 kinase inhibitory rate
T3 construct: made in house; host or cells: SF-21 insect cells, recombinant baculovirus BAC-VEGFR2
T3 sequence (P35968 786-1356 limits assumed): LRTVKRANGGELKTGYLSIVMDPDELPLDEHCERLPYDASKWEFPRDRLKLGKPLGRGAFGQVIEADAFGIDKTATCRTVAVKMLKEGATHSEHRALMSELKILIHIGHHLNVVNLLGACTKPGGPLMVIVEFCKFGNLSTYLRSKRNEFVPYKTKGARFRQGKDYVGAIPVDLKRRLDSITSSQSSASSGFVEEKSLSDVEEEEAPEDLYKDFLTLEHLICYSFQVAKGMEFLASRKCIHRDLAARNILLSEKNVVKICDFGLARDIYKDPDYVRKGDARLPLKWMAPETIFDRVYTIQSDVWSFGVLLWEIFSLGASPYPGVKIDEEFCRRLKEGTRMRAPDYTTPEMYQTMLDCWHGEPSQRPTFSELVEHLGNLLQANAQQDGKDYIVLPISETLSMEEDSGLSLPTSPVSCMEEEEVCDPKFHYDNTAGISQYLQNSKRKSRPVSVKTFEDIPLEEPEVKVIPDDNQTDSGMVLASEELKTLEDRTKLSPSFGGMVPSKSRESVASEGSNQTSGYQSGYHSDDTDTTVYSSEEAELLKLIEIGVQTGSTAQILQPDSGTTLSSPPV
Procedure: Human vascular endothelial growth factor receptor 2 (hereinafter to be referred to as VEGFR2) gene was cloned by PCR using cDNA Libraries Human Placenta (Clontech) as a template. The primer used for PCR was prepared from base sequence (Genbank Accession AF035121) information of VEGFR2 gene by adding a base sequence encoding flag peptide and a recognition sequence of the restriction enzyme to a base sequence (2671-4374 of Genbank Accession AF035121) encoding the VEGFR2 intracellular domain region, so that the protein contains an N-terminal Flag tag. The primer base sequence is shown below.
SF-21 cells were sown at 1×10^6 cells/mL to Sf-900II SFM medium (1 L, Invitrogen) containing 10% fetal bovine serum (trace), 50 mg/L Gentamicin (Invitrogen) and 0.1% Pluronic F-68 (Invitrogen), and shaking culture was performed using a 2 L volume Erlenmeyer flask at 27° C., 100 rpm. After culturing for 24 hrs, recombinant baculovirus BAC-VEGFR2 (13.4 mL) was added to the mixture, and the mixture was further cultured for 3 days. The culture medium was centrifuged at 2,000 rpm for 5 min to give virus-infected cells. The infected cells were washed with a phosphate buffered saline (Invitrogen), centrifuged under the same conditions, and the cells were preserved at −80° C. The cryopreserved cells were thawed in ice, suspended in buffer A (50 mM Tris buffer (30 mL, pH 7.4) containing 20% glycerol, 0.15 M NaCl) supplemented with Complete Protease Inhibitor (Boehringer), and ruptured 3 times with a Polytron homogenizer (Kinematica) at 20,000 rpm for 30 sec. The ruptured medium was clarified by centrifugation at 40,000 rpm for 30 min and filtered with a 0.45 μm filter. The filtrate was passed through a column packed with Anti-FLAG M2 Affinity Gel (4 mL, Sigma) at a flow rate of about 0.5 mL/min. The column was washed with buffer A, and eluted with buffer A containing 100 μg/mL of FLAG peptide. The eluate was concentrated with Vivaspin 20 (Vivascience) having a molecular weight cut off of 30K. The buffer of this concentrate was exchanged using NAP™ 25 column (Amersham Bioscience) equilibrated with buffer A. The fractions containing intracellular domain protein of VEGFR2 were collected, glycerol was added to the final concentration of 50% and cryopreserved at −80° C.
A test compound dissolved in dimethyl sulfoxide (DMSO) was diluted with a buffer (50 mM Tris-HCl (pH 7.5), 5 mM MgCl2, 5 mM MnCl2, 2 mM dithiothreitol, 0.01% Tween-20). To this compound solution (5 μL) was added a buffer (10 μL) containing 50 ng/mL of VEGFR2 intracellular domain protein and 250 ng/mL of biotin labeled polypeptide biotinyl-poly-Glu:Tyr (4:1) (CIS bio International). To the obtained mixture was added a buffer (10 μL) containing ATP (25 μM), the mixture was allowed to react at 25° C. for 5 min and the reaction was quenched with 25 μL of a stop solution (100 mM EDTA disodium salt, 62.5 mM HEPES buffer (pH 7.4), 250 mM NaCl, 0.1% bovine serum albumin, 10 μg/mL AlphaScreen assay streptavidin donor beads (Streptavidin Donor beads: PerkinElmer), 10 μg/mL AlphaScreen assay anti-phosphotyrosine recognition antibody PY-100 binding acceptor beads (Anti-phosphotyrosine (P-Tyr-100) Acceptor beads: PerkinElmer)). The reaction solution was allowed to stand at 25° C. for 16 hrs, and the wells were counted using a plate reader Fusion™ (PerkinElmer). The kinase inhibitory rate (%) of the test compound was calculated by the following formula: Inhibitory rate(%)=(1−(count of test compound−blank)÷(control−blank))×100

[4] = test system: Human umbilical vein-derived vascular endothelial cells (HUVEC); assay: Vascular endothelial cell growth inhibitory test (VEGF-stimulated HUVEC, XTT); format: cell-based; conditions: 120 h, 5 days of culture
Procedure: To be specific, HUVEC was suspended in a vascular endothelial cell medium containing the aforementioned 5% bovine fetal serum and plated on a 96 well flat bottom plate by 50 μL (3000 cells) each well. After culture overnight, various concentrations of the test substance and 120 ng/mL of vascular endothelial growth factor (VEGF) were dissolved in a vascular endothelial cell medium containing 5% bovine fetal serum and added to each well by 50 μL. After 5 days of culture, a XTT reagent (Wako Pure Chemical Industries, Ltd.) was added to each well by 10 μL, and the mixture was reacted in an incubator at 37° C., 5% carbon dioxide for 2-3 hr. The absorbance at 450 nm was measured by a microtiter plate reader and the cell growth inhibitory activity was determined.

Structure (SMILES)	IC50 [1] [nM]	IC50 [2] [nM]	inhibition at 1 µM [3] [%]	IC50 [4] [nM]
CCc1cc(C(=O)Nc2cc(Oc3ccc4nc(NC(=O)C5CC5)cn4n3)ccc2Cl)n(C)n1 [Example 247, N-[2-chloro-5-({2-[(cyclopropylcarbonyl)amino]imidazo[1,2-b]pyridazin-6-yl}oxy)phenyl]-3-ethyl-1-methyl-1H-pyrazole-5-carboxamide]	≤ 500	≤ 500	≥ 90	≤ 500
CCc1cc(C(=O)Nc2cc(Oc3ccc4nc(NC(=O)C5CC5)cn4n3)ccc2F)n(C)n1 [Example 208, N-[5-({2-[(cyclopropylcarbonyl)amino]imidazo[1,2-b]pyridazin-6-yl}oxy)-2-fluorophenyl]-3-ethyl-1-methyl-1H-pyrazole-5-carboxamide]	≤ 500	≤ 500	≥ 90	≤ 500
COCC(=O)Nc1cn2nc(Oc3cccc(NC(=O)c4cc(C)nn4C)c3)ccc2n1 [Example 127, N-[3-({2-[(methoxyacetyl)amino]imidazo[1,2-b]pyridazin-6-yl}oxy)phenyl]-1,3-dimethyl-1H-pyrazole-5-carboxamide]	–	≤ 500	≥ 90	≤ 500
Cc1cc(C(=O)Nc2cccc(Sc3ccc4nc(NC(=O)C5CC5)cn4n3)c2)n(C)n1 [Example 150, N-[3-({2-[(cyclopropylcarbonyl)amino]imidazo[1,2-b]pyridazin-6-yl}sulfanyl)phenyl]-1,3-dimethyl-1H-pyrazole-5-carboxamide]	–	≤ 500	≥ 90	≤ 500
Cc1cc(C(=O)Nc2cc(Oc3ccc4nc(NC(=O)C5CC5)cn4n3)ccc2C)n(C)n1 [Example 111, N-[5-({2-[(cyclopropylcarbonyl)amino]imidazo[1,2-b]pyridazin-6-yl}oxy)-2-methylphenyl]-1,3-dimethyl-1H-pyrazole-5-carboxamide]	–	–	≥ 90	≤ 500
Cc1nc(C)c(C(=O)Nc2cccc(Oc3ccc4nc(NC(=O)C5CC5)cn4n3)c2)s1 [Example 114, N-[3-({2-[(cyclopropylcarbonyl)amino]imidazo[1,2-b]pyridazin-6-yl}oxy)phenyl]-2,4-dimethyl-1,3-thiazole-5-carboxamide]	–	≤ 500	≥ 90	≤ 500
Cc1cc(C(=O)Nc2cccc(Oc3ccc4nc(NC(=O)CN(C)C)cn4n3)c2)n(C)n1 [Example 149, N-[3-({2-[(N,N-dimethylglycyl)amino]imidazo[1,2-b]pyridazin-6-yl}oxy)phenyl]-1,3-dimethyl-1H-pyrazole-5-carboxamide]	–	≤ 500	≥ 90	≤ 500
Cc1nc(C(=O)Nc2cccc(Oc3ccc4nc(NC(=O)C5CC5)cn4n3)c2)c(C)o1 [Example 117, N-[3-({2-[(cyclopropylcarbonyl)amino]imidazo[1,2-b]pyridazin-6-yl}oxy)phenyl]-2,5-dimethyl-1,3-oxazole-4-carboxamide]	–	≤ 500	≥ 90	≤ 500
CCn1cc(C(=O)Nc2cc(Oc3ccc4nc(NC(=O)C5CC5)cn4n3)ccc2Cl)c(C)n1 [Example 254, N-[2-chloro-5-({2-[(cyclopropylcarbonyl)amino]imidazo[1,2-b]pyridazin-6-yl}oxy)phenyl]-1-ethyl-3-methyl-1H-pyrazole-4-carboxamide]	–	≤ 500	≥ 90	≤ 500

Now from value to compound, other results behind:

IC50 [1] [nM]	IC50 [2] [nM]	inhibition at 1 µM [3] [%]	Structure (SMILES)	IC50 [4] [nM]
≤ 500	≤ 500	≥ 90	Cn1nccc1C(=O)Nc1cc(Oc2ccc3nc(NC(=O)C4CC4)cn3n2)ccc1F [Example 287, N-[5-({2-[(cyclopropylcarbonyl)amino]imidazo[1,2-b]pyridazin-6-yl}oxy)-2-fluorophenyl]-1-methyl-1H-pyrazole-5-carboxamide]	≤ 500
≤ 500	–	≥ 90	O=C(Nc1cn2nc(Oc3ccc4cc[nH]c4c3)ccc2n1)C1CC1 [Example 95, N-[6-(1H-indol-6-yloxy)imidazo[1,2-b]pyridazin-2-yl]cyclopropanecarboxamide]	≤ 500
–	–	≥ 90	Cc1ccc(Oc2ccc3nc(NC(=O)C4CC4)cn3n2)cc1N [Example 108, N-[6-(3-amino-4-methylphenoxy)imidazo[1,2-b]pyridazin-2-yl]cyclopropanecarboxamide]	≤ 500
–	≤ 500	≥ 90	CCNC(=O)Nc1cccc(Oc2ccc3nc(NC(=O)C4CC4)cn3n2)c1 [Example 103, N-[6-(3-{[(ethylamino)carbonyl]amino}phenoxy)imidazo[1,2-b]pyridazin-2-yl]cyclopropanecarboxamide]	≤ 500
